What was measured:
[1] = test system: primary mouse bone marrow-derived macrophages (BMMs); experiment: Osteoclast formation from BMMs, TRAP staining; assay type: cell-based; details: sRANKL 50 ng/ml, M-CSF 40 ng/ml, 7 days, FIG. 1A
Description: (§1) FIGS. 1A-1D are data collected from primary mouse bone marrow-derived macrophages (BMMs) respectively incubated in the medium containing the soluble recombinant RANKL (sRANKL, 50 ng/ml), macrophage colony-stimulating factor (M-CSF, 40 ng/ml) and specified concentrations of MLN4924 for 7 days according to example 1.1 of the present disclosure. FIG. 1A: the photographs of TRAP staining depicting the differentiation of osteoclasts from BMMs. FIG. 1B: after the differentiation of osteoclasts in Corning Osteo Surface (a synthetic 3-dimensional structure that mimics in vivo bone for in vitro bone cell assays), the cells were removed, and the resorbed areas for confirming osteoclast activity were analyzed by 1% toluidine blue staining. FIG. 1C: the culture medium is subject to Biovision Cathepsin K Activity Fluorometric Assay Kit for the analysis of cathepsin K activity. FIG. 1D: the effect of effective doses of MLN4924 on the viability of BMMs is evaluated by MTT assay. Scale bar represents 100 μm. Data are expressed as mean±SD where *p<0.05; **p<0.01.
The pre-osteoclast cells were prepared by mouse bone marrow-derived macrophage (BMM). In brief, the femurs and tibias were obtained from 6-12 week old C57BL/6J female mice. […]

cathepsin K = experiment: Cathepsin K activity fluorometric assay, BMMs; assay type: cell-based, mouse; details: FIG. 1C
Description: as §1
The pre-osteoclasts and RAW264.7 cells were seeded into Corning Osteo Surface Assay 96-wells plate (Corning, Kennebunk, Me.). Twenty-four hours later, the cells were treated with sRANKL (50 ng/ml) and specified concentrations of MLN4924 for 7 days. […]

[2] = test system: primary mouse bone marrow-derived macrophages (BMMs); experiment: Viability of BMMs (WST / MTT assay); assay type: cell-based; details: doses that inhibit osteoclast differentiation, FIG. 1D
Description: as §1, with “**p<0.01. Next, the WST assay was used to determine whether the suppressed osteoclastogenesis by MLN4924 was caused by cytotoxicity.” for “**p<0.01.”

NFATc-1 = experiment: Western blot, sRANKL-induced NFATc-1 expression in RAW264.7 cells; assay type: cell-based, mouse; details: RAW264.7, 30 min pre-treatment, sRANKL 50 ng/ml, FIG. 3C-3D
Description: FIGS. 3A-3D are data collected from Western blot analysis that respectively depict the expression of specified protein extracted from the RAW264.7 cells, which are pre-treated with specified concentrations of MLN4924 for 30 minutes followed by the stimulation of sRANKL (50 ng/ml) according to example 2 of the present disclosure. FIG. 3A: the time course effect of MLN4924 on the phosphorylations of ERK (pERK), P38 (pP38) and JNK (pJNK). FIG. 3B: the dose effect of MLN4924 on the phosphorylations of ERK (pERK), P38 (pP38) and JNK (pJNK). FIG. 3C: the time course effect of MLN4924 on the expression of NFATc-1. FIG. 3D: the dose effect of MLN4924 on the expression of NFATc-1. Mock: untreated control; R: sRANKL; M: MLN4924.
The RAW264.7 cells were starved with serum-free medium for six hours and then treated with the specified treatments. At indicated time points, the cells were washed with cold phosphate-buffered saline (PBS) and lysed in RIPA buffer containing complete protease inhibitor cocktail (Roche). The cell lysates were separated by SDS-PAGE followed by Western blotting with the indicated antibodies, including NEDD8, APPBP1, UBA3.
In addition, ectopic expression of NFATc-1 in the pre-osteoclasts rendered the pre-osteoclast differentiated to osteoclasts in the absence of RANKL. […]

With `NS(=O)(=O)OC[C@@H]1C[C@@H](n2ccc3c(N[C@H]4CCc5ccccc54)ncnc32)C[C@@H]1O` [MLN4924, (1S,2S,4R)-4-(4-((1S)-2,3-Dihydro-1H-inden-1-ylamino)-7H-pyrrolo(2,3-d)pyrimidin-7-yl)-2-hydroxycyclopentyl) methyl sulphamate] the “sRANKL-mediated osteoclast formation (TRAP staining)” value [1] was “obviously suppressed the sRANKL-mediated osteoclast formation in a dose-dependent manner”, the “basal activity of cathepsin K” value (cathepsin K; MLN4924 alone without sRANKL) was “did not affect the basal activity of cathepsin K in macrophages” and the “activity of cathepsin K versus sRANKL group” value (cathepsin K; with sRANKL) was “significantly reduced the activity of cathepsin K”. The “cytotoxicity / viability of BMMs” value [2] was “no cytotoxic effects at doses that effectively inhibited osteoclast differentiation” and the “expression of NFATc-1 induced by sRANKL” value (NFATc-1) was “significant suppressed”.

Reference: patent US10285994B2, “Method of preventing or treating osteoporosis by neddylation inhibitor” (Chang Gung University, priority 2017, dated 2019)
